Test results from patent US20190187129A1, “CANCER MODELING PLATFORMS AND METHODS OF USING THE SAME” (Wake Forest University Health Sciences, priority 2016, published 2019).
Entries after “also recorded” stand apart in the source; their conditions may differ.

Experiments:
SW480 cells [1] = assay: 2D drug screen, MTS assay; format: cell-based; conditions: Homo sapiens, read-out: relative cellular viability (MTS, relative to control)
Method: (§1) Cancer cells seeded directly into wells were given 4-5 hours to reattach to the bottom of the wells. After that time, the anticancer drug solutions were administered in place of the media (FIG. 6, panel A) and an MTS assay was carried out 2 days later to determine cell viability. […] At 100 μM concentrations of Regorafenib and Sorafenib, and 100 mM concentrations of 5-FU, cellular viability remained below 20% that of the control for all four of the colorectal cancer cell lines utilized. However, screening with Dabrafenib and Trametinib produced diverging results from the other three anticancer drugs at higher concentrations. […] When treated with 1 mM concentrations of 5-FU, relative cellular viability was approximately 39% for SW480 cells and remained between 10%-22% for the HCT116, HT29, and CACO2 cells. These values were considerably lower than the relative cellular viability values for the lowest concentrations of the other anticancer drugs.
(§2) Cell Seeding: The original 15 mL centrifuge tubes containing the 10 mL of DMEM-10, cells, and trypsin were placed into a centrifuge. The centrifugation setting was 1500 RPM and at maximal acceleration for 5 minutes. After that time, the media and trypsin mixture was aspirated from the tubes, leaving the cell pellets still intact. 5 mL of DMEM-10 was then pipetted into each of the tubes, resuspending the cells in the process. Calculated volumes of the 5 mL cell-media solution were determined to ensure that 25,000 cells of each of the four colorectal cancer cell lines were seeded directly into each of the wells of a polystyrene clear-bottom 96-well plate. 100 μL of DMEM-10 media was then pipetted directly into the wells. The 96-well plates were incubated at 37° C. and 5% CO2 for 5 hours to allow the cells to reattach themselves to the bottom of the wells until media was aspirated and anticancer drug solutions were added.
(§3) Addition of Anticancer Drugs for Screening: The anticolorectal cancer drugs used in this screening included 5-FU, Regorafenib, Sorafenib, Trametinib, and Dabrafenib (Sigma-Aldrich, Missouri, USA)). High concentration drug stock solutions were created with DMSO. Lower concentration drug solutions were created by mixing the anticancer drug stocks with DMEM-10 media. […] drug solutions were generated for 5-FU; 1 μM, 10 μM, and 100 μM drug solutions were generated for Regorafenib, Sorafenib, and Dabrafenib; and 1 nM, 10 nM, and 100 nM drug solutions were generated for Trametinib. Media was carefully aspirated from the wells and 200 μL of the various drug-media solutions were placed into the wells containing cells. Three duplicates were generated for each anticancer drug concentration with each of the different cell types to calculate averages and run statistics on the data generated. Well plates were then incubated at 37° C. and 5% CO2 for […].
(§4) Cell viability assay: Cell viability was determined 48 hours after exposure to the anticancer drug solutions. The viability of the cells was examined by the CellTiter 96® AQueous One Solution Cell Proliferation (MTS) assay (Promega, Wisconsin, USA). The anticancer drug-media solutions were aspirated from the wells and 200 μL of the MTS reagent was carefully pipetted into the wells. The incubation time for the cells with the MTS reagent was approximately 45 minutes. The cell viability assay was performed on another 96-well plate and the absorbance was quantified by the EnVision Multilabel Plate Reader (PerkinElmer, California, USA).

HCT116 cells [2] = assay: cells; format: cell-based; conditions: Homo sapiens, HCT-116, read-out: relative cellular viability (MTS, relative to control)
Method: as §1, §2, §3, §4

CACO2 cells [3] = assay: 3D hyaluronan-based hydrogel construct drug screen, MTS assay; conditions: Homo sapiens, Caco-2, 3D, 100 μM, CACO2, drug day 5, assay day 7; read-out: percent relative cell viability (MTS, relative to control)
Method: (§5) Polydimethylsiloxane, or PDMS, was used to coat the bottom of the wells. Cells were embedded within the hyaluronan-based hydrogel and were given 5 days to acclimate to their three-dimensional environment and on day 5 were administered different anticancer drug solutions (FIG. 7, panel A). […] At 100 μM concentrations of Regorafenib and Sorafenib, cellular viability remained below 25% that of the control for all four of the colorectal cancer cell lines utilized. The only exception to this was when 100 μM Regorafenib was administered to CACO2 cells and the percent relative cell viability rose to approximately 48%. […] At a 100 μM concentration, Dabrafenib had greater efficacy in targeting the HCT116 and SW480 cell lines, which had relative cellular viability values of 38% and 43%, as opposed to the HT29 and CACO2 cell lines, which had higher cell viability values of 93% and 75%. 100 μM concentrations of Trametinib produced relative cellular viability results that fell within a narrow range for the four colorectal cell lines with values of 54% for SW480 cells and 74% for HT29 cells.
(§6) Well Coating with PDMS and Cell Isolation: Polydimethylsiloxane, or PDMS, (DOW Corning, North Carolina, USA) was used at a 1:10 curing agent ratio to coat the bottom of the 96-well plates and the plates were then placed in a 80° C. oven for at least one hour. Cells were passaged in the same methods previously mentioned (A) with the desire to place 10 μL 3D hyaluronan-based hydrogel constructs containing 100,000 cells each ([…]) into the wells of a 96-wells plate for all four colorectal cancer cell types. Depending on the cell count, a desired number of cells were isolated in new 15 mL centrifuge tubes as cell-media solution and underwent centrifugation.
(§7) Hydrogel Components of the Single-Cell Type Constructs: The hyaluronic acid-based hydrogel (ESI BIO, California, USA) was produced using a mixture of three components: Heprasil, Gelin-S, and Extralink PEGDA 2-ARM Acrylate crosslinker. These components were mixed in a 2:2:1 ratio by volume. 0.1% Irgacure photoinitiator (Sigma-Aldrich, Missouri, USA) was added to each of the three components prior to their mixture and the three components were placed in a 37° C. incubator for a ˜30 minutes to solubilize.
Forming Organoid Constructs: Once solubilized, the media was aspirated from the 15 mL centrifuge tube (post-centrifugation) and the cells were isolated as a pellet. The hydrogel components were added directly into the centrifuge tube containing the cells and the cells were carefully resuspended in the mixture. 10 μL of the gel-cell solution was placed in the center of the wells on the PDMS coating. This was continued for all wells containing cells and was repeated for each cell type. […]

HCT116 cells [4] = assay: as above; conditions: Homo sapiens, HCT-116, 3D, 100 μM, HCT116, drug day 5, assay day 7; read-out: percent relative cell viability (MTS, relative to control)
Method: Polydimethylsiloxane, or PDMS, was used to coat the bottom of the wells. Cells were embedded within the hyaluronan-based hydrogel and were given 5 days to acclimate to their three-dimensional environment and on day 5 were administered different anticancer drug solutions (FIG. 7, panel A). […], Dabrafenib had greater efficacy in targeting the HCT116 and SW480 cell lines, which had relative cellular viability values of 38% and 43%, as opposed to the HT29 and CACO2 cell lines, which had higher cell viability values of 93% and 75%. […]
as §6, §7
(§8) Forming Organoid Constructs: Once solubilized, the media was aspirated from the 15 mL centrifuge tube (post-centrifugation) and the cells were isolated as a pellet. The hydrogel components were added directly into the centrifuge tube containing the cells and the cells were carefully resuspended in the mixture. 10 μL of the gel-cell solution was placed in the center of the wells on the PDMS coating. This was continued for all wells containing cells and was repeated for each cell type. After this point, the gel can be exposed to UV light from a BlueWave 200 spot light (Dymax, Connecticut, USA) to solidify the hydrogel, or one can wait ˜30 minutes for the gel to form on its own. DMEM-10 media was then placed in the wells and the constructs were incubated for 5 days.
(§9) Anticancer Drug Screening and Cell Viability: The same five anticancer drugs were added on Day 5 and the cell viability assay occurred on Day 7.

HT29 cells [5] = assay: as above; format: cell-based; conditions: for viability at 100 µM: Homo sapiens, HT-29, 100 μM, HT29, drug day 5, assay day 7, read-out: percent relative cell viability (MTS, relative to control)
Method: as §5, §6, §7, §8, §9

SW480 cells [6] = assay: as above; format: cell-based; conditions: for viability at 100 µM: Homo sapiens, SW480, drug day 5, assay day 7, read-out: percent relative cell viability (MTS, relative to control)
Method: as §5, §6, §7, §8, §9

CACO2 cells [7] = assay: cells; format: cell-based; conditions: Homo sapiens, Caco-2, read-out: relative cellular viability (MTS, relative to control)
Method: as §1, §2, §3, §4

HT29 cells [8] = assay: cells; format: cell-based; conditions: Homo sapiens, HT-29, read-out: relative cellular viability (MTS, relative to control)
Method: as §1, §2, §3, §4

[9] = test system: liver, cardiac, lung, testis, and brain organoids; assay: 5 organoid integrated drug screening in a miniaturized microfluidic platform, live/dead staining; format: cell-based; conditions: miniaturized system, 20 uM
Method: (§10) Design and Results of Experiments: Adhesive film-based microfluidic platforms were fabricated as described below. As with the full-scale platform described in Example 4, five tissue constructs were initiated containing liver, cardiac, lung, testis, and brain organoids and maintained for 7 days prior to the start of the drug study. At this point, the liver modules were removed from half of the platforms. Capecitabine (20 uM) was administered to all platforms after which viability was assessed through live/dead staining or cardiac beating behavior after 7 days of exposure (day 14 of total study).
FIG. 14 provides an overview of this fabrication methodology.

[10] = test system: liver, cardiac, lung, testis, and brain organoids; assay: 5 organoid integrated drug screening (standard size platform), live/dead staining; format: cell-based; conditions: 20 uM
Method: as §10, with “Five tissue” for “Adhesive film-based microfluidic”, “platforms” for “platforms were fabricated as described below. As with the full-scale platform described in Example 4, five tissue constructs”

[11] = 7 days of exposure, with liver present
[12] = 7 days of exposure, without liver

Structure (SMILES): CC(C)(C)c1nc(-c2cccc(NS(=O)(=O)c3c(F)cccc3F)c2F)c(-c2ccnc(N)n2)s1 [Dabrafenib]
- viability at 100 µM (SW480 cells [1]): ~93%
- viability at 100 µM (HCT116 cells [2]): ~36%
- viability at 100 µM (CACO2 cells [3]): 75%
- viability at 100 µM (HCT116 cells [4]): 38%
- viability at 100 µM (HT29 cells [5]): 93%
- viability at 100 µM (SW480 cells [6]): 43%

Structure (SMILES): CNC(=O)c1cc(Oc2ccc(NC(=O)Nc3ccc(Cl)c(C(F)(F)F)c3)cc2)ccn1 [Sorafenib]
- viability at 100 µM (SW480 cells [1]): < 20%
- viability at 100 µM (CACO2 cells [7]): < 20%
- viability at 100 µM (HT29 cells [8]): < 20%
- viability at 100 µM (HCT116 cells [2]): < 20%
- viability at 100 µM (CACO2 cells [3]): < 25%
- viability at 100 µM (HCT116 cells [4]): < 25%
- viability at 100 µM (HT29 cells [5]): < 25%
- viability at 100 µM (SW480 cells [6]): < 25%

Structure (SMILES): CC(=O)Nc1cccc(-n2c(=O)n(C3CC3)c(=O)c3c(Nc4ccc(I)cc4F)n(C)c(=O)c(C)c32)c1 [Trametinib]
- viability at 0.1 µM (SW480 cells [1]; 100 nM): ~58%
- viability at 0.1 µM (CACO2 cells [7]): ~39%
- percent relative cell viability (MTS, relative to control) (HT29 cells [5]; 100 μM concentrations of Trametinib, HT29): 74%
- percent relative cell viability (MTS, relative to control) (SW480 cells [6]; 100 μM concentrations of Trametinib, SW480): 54%

Structure (SMILES): CCCCCOC(=O)Nc1nc(=O)n([C@@H]2O[C@H](C)[C@@H](O)[C@H]2O)cc1F [capecitabine]
- brain organoid viability (LIVE/DEAD) ([9]; 7 days of exposure): brain organoid viability is high
- cardiac and lung organoid toxicity (LIVE/DEAD) [9, 11]: heart and lung toxicity
- cardiac and lung organoid viability (LIVE/DEAD) [9, 12]: cardiac and lung organoid viability does not decrease
- metabolism by liver organoids ([9]; with liver present): metabolized into the toxic drug 5-FU
- brain organoid viability (LIVE/DEAD) ([10]; 7 days of exposure, with and without liver): brain organoids suffered in both groups
- cardiac and lung organoid toxicity (LIVE/DEAD) [10, 11]: heart and lung toxicity; also recorded: increased cell death in cardiac and lung organoids
- cardiac and lung organoid viability (LIVE/DEAD) [10, 12]: cardiac and lung organoid viability does not decrease
- metabolism by liver organoids ([10]; with liver present): metabolized into the toxic drug 5-FU
